Patent US7507717B2 (Xenome Ltd., priority 2002, dated 2009)
pIC50: −log10 of the molar value. Residues, ends and D or L forms follow the SMILES beside them.

The compounds below were run against T1, human noradrenaline transporter (hNET) (Homo sapiens, UniProt P23975) (assay: biochemical). Details: Av IC50 Displacement of 3H-nisoxetine from hNET.
T1 construct: expressed in transfected cells; host or cells: COS-7 cells (ATCC), transient transfection with metafectene
Format: binding

T1 sequence (P23975 whole entry): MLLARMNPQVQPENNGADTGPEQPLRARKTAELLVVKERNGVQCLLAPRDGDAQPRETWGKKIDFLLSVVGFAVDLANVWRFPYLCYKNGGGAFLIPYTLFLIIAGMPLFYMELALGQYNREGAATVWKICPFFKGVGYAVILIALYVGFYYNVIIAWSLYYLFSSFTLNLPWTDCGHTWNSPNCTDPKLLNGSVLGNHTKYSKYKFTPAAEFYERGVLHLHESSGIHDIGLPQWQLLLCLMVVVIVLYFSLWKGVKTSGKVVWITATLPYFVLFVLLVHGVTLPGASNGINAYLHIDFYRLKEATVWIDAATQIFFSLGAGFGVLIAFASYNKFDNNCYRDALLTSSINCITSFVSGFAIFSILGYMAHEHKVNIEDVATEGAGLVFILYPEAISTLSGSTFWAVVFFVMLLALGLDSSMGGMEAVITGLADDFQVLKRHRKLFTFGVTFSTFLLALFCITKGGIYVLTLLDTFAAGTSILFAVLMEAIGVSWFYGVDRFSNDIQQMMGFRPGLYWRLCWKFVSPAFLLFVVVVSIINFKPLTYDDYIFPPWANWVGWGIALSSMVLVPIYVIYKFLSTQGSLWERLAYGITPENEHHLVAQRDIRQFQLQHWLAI

SMILES	pIC50
CC(C)C[C@@H]1NC(=O)[C@H](CCCCN)NC(=O)[C@H](Cc2ccc(O)cc2)NC(=O)CNC(=O)[C@@H]2CSSC[C@H](NC1=O)C(=O)N[C@@H](Cc1c[nH]cn1)C(=O)N1CCC[C@H]1C(=O)N[C@H](C(N)=O)CSSC[C@H](NC(=O)[C@@H](NC(=O)[C@H](CCCCN)NC(=O)[C@H](CC(N)=O)NC(=O)[C@@H](N)Cc1ccc(O)cc1)C(C)C)C(=O)N2 [compound 110] (HELM PEPTIDE1{Y.N.K.V.C.C.G.Y.K.L.C.H.P.C.[am]}$PEPTIDE1,PEPTIDE1,5:R3-14:R3|PEPTIDE1,PEPTIDE1,6:R3-11:R3$$$V2.0)	6.01
CC(C)C[C@@H]1NC(=O)[C@H](CCCCN)NC(=O)[C@H](Cc2ccc(O)cc2)NC(=O)CNC(=O)[C@@H]2CSSC[C@H](NC1=O)C(=O)N[C@@H](Cc1c[nH]cn1)C(=O)N1CCC[C@H]1C(=O)N[C@H](C(N)=O)CSSC[C@H](NC(=O)[C@@H](NC(=O)CNC(=O)[C@H](CC(N)=O)NC(=O)[C@@H](N)Cc1ccc(O)cc1)C(C)C)C(=O)N2 [compound 116]	5.95
CC(C)C[C@@H]1NC(=O)[C@H](CCCCN)NC(=O)[C@H](Cc2ccc(O)cc2)NC(=O)CNC(=O)[C@@H]2CSSC[C@H](NC1=O)C(=O)N[C@@H](Cc1c[nH]cn1)C(=O)N[C@@H](CCCCN)C(=O)N[C@H](C(N)=O)CSSC[C@H](NC(=O)[C@@H](NC(=O)CNC(=O)[C@@H](N)CC(N)=O)C(C)C)C(=O)N2 [compound 117] (HELM PEPTIDE1{N.G.V.C.C.G.Y.K.L.C.H.K.C.[am]}$PEPTIDE1,PEPTIDE1,4:R3-13:R3|PEPTIDE1,PEPTIDE1,5:R3-10:R3$$$V2.0)	5.94
CC(C)C[C@@H]1NC(=O)[C@H](CCCCN)NC(=O)[C@H](Cc2ccc(O)cc2)NC(=O)CNC(=O)[C@@H]2CSSC[C@H](NC1=O)C(=O)N[C@@H](Cc1c[nH]cn1)C(=O)N1CCC[C@H]1C(=O)N[C@H](C(N)=O)CSSC[C@H](NC(=O)[C@@H](NC(=O)[C@H](CCCNC(=N)N)NC(=O)[C@H](CC(N)=O)NC(=O)[C@@H](N)Cc1ccc(O)cc1)C(C)C)C(=O)N2 [compound 118] (HELM PEPTIDE1{Y.N.R.V.C.C.G.Y.K.L.C.H.P.C.[am]}$PEPTIDE1,PEPTIDE1,5:R3-14:R3|PEPTIDE1,PEPTIDE1,6:R3-11:R3$$$V2.0)	5.93
CC(C)C[C@@H]1NC(=O)[C@H](CCCCN)NC(=O)[C@H](Cc2ccc(O)cc2)NC(=O)CNC(=O)[C@@H]2CSSC[C@H](NC1=O)C(=O)N[C@@H](Cc1c[nH]cn1)C(=O)N1CCC[C@H]1C(=O)N[C@H](C(N)=O)CSSC[C@H](NC(=O)[C@@H](NC(=O)[C@H](CCCCN)NC(=O)[C@@H](N)CC(N)=O)C(C)C)C(=O)N2 [compound 122] (HELM PEPTIDE1{N.K.V.C.C.G.Y.K.L.C.H.P.C.[am]}$PEPTIDE1,PEPTIDE1,4:R3-13:R3|PEPTIDE1,PEPTIDE1,5:R3-10:R3$$$V2.0)	5.88
CC[C@H](C)[C@H](NC(=O)CNC(=O)[C@@H](N)CC(N)=O)C(=O)N[C@H]1CSSC[C@@H](C(N)=O)NC(=O)[C@@H]2CCCN2C(=O)[C@H](Cc2c[nH]cn2)NC(=O)[C@@H]2CSSC[C@H](NC1=O)C(=O)NCC(=O)N[C@@H](Cc1ccc(O)cc1)C(=O)N[C@@H](CCCCN)C(=O)N[C@@H](CC(C)C)C(=O)N2 [compound 125] (HELM PEPTIDE1{N.G.I.C.C.G.Y.K.L.C.H.P.C.[am]}$PEPTIDE1,PEPTIDE1,4:R3-13:R3|PEPTIDE1,PEPTIDE1,5:R3-10:R3$$$V2.0)	5.85
CC(C)C[C@@H]1NC(=O)[C@H](CCCCN)NC(=O)[C@H](Cc2ccc(O)cc2)NC(=O)CNC(=O)[C@@H]2CSSC[C@H](NC1=O)C(=O)N[C@@H](Cc1c[nH]cn1)C(=O)N1CCC[C@H]1C(=O)N[C@H](C(N)=O)CSSC[C@H](NC(=O)[C@@H](NC(=O)CNC(=O)[C@@H](N)CC(N)=O)[C@@H](C)O)C(=O)N2 [compound 138] (HELM PEPTIDE1{N.G.T.C.C.G.Y.K.L.C.H.P.C.[am]}$PEPTIDE1,PEPTIDE1,4:R3-13:R3|PEPTIDE1,PEPTIDE1,5:R3-10:R3$$$V2.0)	5.64
CC(C)C[C@@H]1NC(=O)[C@H](CCCCN)NC(=O)[C@H](Cc2ccc(O)cc2)NC(=O)CNC(=O)[C@@H]2CSSC[C@H](NC1=O)C(=O)N[C@@H](Cc1c[nH]cn1)C(=O)N[C@@H](C)C(=O)N[C@H](C(N)=O)CSSC[C@H](NC(=O)[C@@H](NC(=O)CNC(=O)[C@@H](N)CC(N)=O)C(C)C)C(=O)N2 [compound 145] (HELM PEPTIDE1{N.G.V.C.C.G.Y.K.L.C.H.A.C.[am]}$PEPTIDE1,PEPTIDE1,4:R3-13:R3|PEPTIDE1,PEPTIDE1,5:R3-10:R3$$$V2.0)	5.53
CC(C)C[C@@H]1NC(=O)[C@H](CCCCN)NC(=O)[C@H](Cc2ccc(O)cc2)NC(=O)CNC(=O)[C@@H]2CSSC[C@H](NC1=O)C(=O)N[C@@H](Cc1c[nH]cn1)C(=O)N1CCC[C@H]1C(=O)N[C@H](C(N)=O)CSSC[C@H](NC(=O)[C@@H](NC(=O)CNC(=O)[C@@H](N)CC(=O)O)C(C)C)C(=O)N2 [compound 151]	5.45
CC(=O)N[C@@H](CC(N)=O)C(=O)NCC(=O)N[C@H](C(=O)N[C@H]1CSSC[C@@H](C(N)=O)NC(=O)[C@@H]2CCCN2C(=O)[C@H](Cc2c[nH]cn2)NC(=O)[C@@H]2CSSC[C@H](NC1=O)C(=O)NCC(=O)N[C@@H](Cc1ccc(O)cc1)C(=O)N[C@@H](CCCCN)C(=O)N[C@@H](CC(C)C)C(=O)N2)C(C)C [compound 152]	5.44
CC(C)C[C@@H]1NC(=O)[C@H](CCCCN)NC(=O)[C@H](Cc2ccc(O)cc2)NC(=O)CNC(=O)[C@@H]2CSSC[C@H](NC1=O)C(=O)N[C@@H](Cc1c[nH]cn1)C(=O)N[C@@H](Cc1ccccc1)C(=O)N[C@H](C(N)=O)CSSC[C@H](NC(=O)[C@@H](NC(=O)CNC(=O)[C@@H](N)CC(N)=O)C(C)C)C(=O)N2 [compound 155]	5.39
CC(C)C[C@@H]1NC(=O)[C@H](CCCCN)NC(=O)[C@H](Cc2ccc(O)cc2)NC(=O)CNC(=O)[C@@H]2CSSC[C@H](NC1=O)C(=O)N[C@@H](Cc1c[nH]cn1)C(=O)N1CCC[C@H]1C(=O)N[C@H](C(N)=O)CSSC[C@H](NC(=O)[C@@H](NC(=O)[C@H](CO)NC(=O)[C@@H](N)CC(N)=O)C(C)C)C(=O)N2 [compound 156] (HELM PEPTIDE1{N.S.V.C.C.G.Y.K.L.C.H.P.C.[am]}$PEPTIDE1,PEPTIDE1,4:R3-13:R3|PEPTIDE1,PEPTIDE1,5:R3-10:R3$$$V2.0)	5.37
CC(C)C[C@@H]1NC(=O)[C@H](CCCCN)NC(=O)[C@H](Cc2ccc(O)cc2)NC(=O)CNC(=O)[C@@H]2CSSC[C@H](NC1=O)C(=O)N[C@@H](Cc1c[nH]cn1)C(=O)N[C@@H](CCC(=O)O)C(=O)N[C@H](C(N)=O)CSSC[C@H](NC(=O)[C@@H](NC(=O)CNC(=O)[C@@H](N)CC(N)=O)C(C)C)C(=O)N2 [compound 159] (HELM PEPTIDE1{N.G.V.C.C.G.Y.K.L.C.H.E.C.[am]}$PEPTIDE1,PEPTIDE1,4:R3-13:R3|PEPTIDE1,PEPTIDE1,5:R3-10:R3$$$V2.0)	5.31
CC(=O)N[C@@H](Cc1ccc(O)cc1)C(=O)N[C@@H](CC(N)=O)C(=O)NCC(=O)N[C@H](C(=O)N[C@H]1CSSC[C@@H](C(N)=O)NC(=O)[C@@H]2CCCN2C(=O)[C@H](Cc2c[nH]cn2)NC(=O)[C@@H]2CSSC[C@H](NC1=O)C(=O)NCC(=O)N[C@@H](Cc1ccc(O)cc1)C(=O)N[C@@H](CCCCN)C(=O)N[C@@H](CC(C)C)C(=O)N2)C(C)C [compound 161]	5.21
CC(C)C[C@@H]1NC(=O)[C@H](CCCCN)NC(=O)[C@H](Cc2ccc(O)cc2)NC(=O)CNC(=O)[C@@H]2CSSC[C@H](NC1=O)C(=O)N[C@@H](CCC(N)=O)C(=O)N1CCC[C@H]1C(=O)N[C@H](C(N)=O)CSSC[C@H](NC(=O)[C@@H](NC(=O)CNC(=O)[C@H](CC(N)=O)NC(=O)[C@@H](N)Cc1ccc(O)cc1)C(C)C)C(=O)N2 [compound 163] (HELM PEPTIDE1{Y.N.G.V.C.C.G.Y.K.L.C.Q.P.C.[am]}$PEPTIDE1,PEPTIDE1,5:R3-14:R3|PEPTIDE1,PEPTIDE1,6:R3-11:R3$$$V2.0)	5.16
CC(C)C[C@@H]1NC(=O)[C@H](CCCCN)NC(=O)[C@H](Cc2ccc(O)cc2)NC(=O)CNC(=O)[C@@H]2CSSC[C@H](NC1=O)C(=O)N[C@@H](Cc1c[nH]cn1)C(=O)N[C@@H](Cc1ccc(O)cc1)C(=O)N[C@H](C(N)=O)CSSC[C@H](NC(=O)[C@@H](NC(=O)CNC(=O)[C@@H](N)CC(N)=O)C(C)C)C(=O)N2 [compound 165]	5.15
CC(C)C[C@@H]1NC(=O)CNC(=O)[C@@H]2CSSC[C@H](NC(=O)[C@H](CC(C)C)NC(=O)[C@H](CCCCN)NC1=O)C(=O)N[C@@H](Cc1c[nH]cn1)C(=O)N1CCC[C@H]1C(=O)N[C@H](C(N)=O)CSSC[C@H](NC(=O)[C@@H](NC(=O)CNC(=O)[C@H](CC(N)=O)NC(=O)[C@@H](N)Cc1ccc(O)cc1)C(C)C)C(=O)N2 [compound 171] (HELM PEPTIDE1{Y.N.G.V.C.C.G.L.K.L.C.H.P.C.[am]}$PEPTIDE1,PEPTIDE1,5:R3-14:R3|PEPTIDE1,PEPTIDE1,6:R3-11:R3$$$V2.0)	4.97
CC(C)C[C@@H]1NC(=O)[C@H](C)NC(=O)[C@H](Cc2ccc(O)cc2)NC(=O)CNC(=O)[C@@H]2CSSC[C@H](NC1=O)C(=O)N[C@@H](Cc1c[nH]cn1)C(=O)N1CCC[C@H]1C(=O)N[C@H](C(N)=O)CSSC[C@H](NC(=O)[C@@H](NC(=O)CNC(=O)[C@@H](N)CC(N)=O)C(C)C)C(=O)N2 [compound 172]	4.97
CC(C)C[C@@H]1NC(=O)[C@H](Cc2ccc(O)cc2)NC(=O)CNC(=O)[C@@H]2CSSC[C@H](NC(=O)[C@H](CC(C)C)NC1=O)C(=O)N[C@@H](Cc1c[nH]cn1)C(=O)N1CCC[C@H]1C(=O)N[C@H](C(N)=O)CSSC[C@H](NC(=O)[C@@H](NC(=O)CNC(=O)[C@H](CC(N)=O)NC(=O)[C@@H](N)Cc1ccc(O)cc1)C(C)C)C(=O)N2 [compound 174] (HELM PEPTIDE1{Y.N.G.V.C.C.G.Y.L.L.C.H.P.C.[am]}$PEPTIDE1,PEPTIDE1,5:R3-14:R3|PEPTIDE1,PEPTIDE1,6:R3-11:R3$$$V2.0)	4.76
CC(C)C[C@@H]1NC(=O)[C@H](Cc2ccccc2)NC(=O)[C@H](Cc2ccc(O)cc2)NC(=O)CNC(=O)[C@@H]2CSSC[C@H](NC1=O)C(=O)N[C@@H](Cc1c[nH]cn1)C(=O)N1CCC[C@H]1C(=O)N[C@H](C(N)=O)CSSC[C@H](NC(=O)[C@@H](NC(=O)CNC(=O)[C@H](CC(N)=O)NC(=O)[C@@H](N)Cc1ccc(O)cc1)C(C)C)C(=O)N2 [compound 179] (HELM PEPTIDE1{Y.N.G.V.C.C.G.Y.F.L.C.H.P.C.[am]}$PEPTIDE1,PEPTIDE1,5:R3-14:R3|PEPTIDE1,PEPTIDE1,6:R3-11:R3$$$V2.0)	4.60
